In patent US20220009918A1, “Chemical Compounds” (GlaxoSmithKline Intellectual Property Development Limited, priority 2018, published 2022):

Target: T1, human H-PGDS (Homo sapiens, UniProt O60760)
T1 construct: Full length human H-PGDS cDNA (Invitrogen Ultimate ORF IOH13026) was amplified by PCR; 6-His (N); TEV protease cleavage site (N); made in house; host or cells: E. coli BL21 (DE3*) for H-PGDS; Sf9 insect cells (baculovirus) for COX-2
Test: H-PGDS RapidFire high throughput mass spectrometry assay
Format: biochemical
Conditions: inhibition of conversion of PGH2 to PGD2 by H-PGDS; mean pIC50; read-out: Potency Range (mean pIC50) (converted)
Outline: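 Full-length His-tagged human H-PGDS from E. coli converted PGH2, generated in situ (~10 μM burst) from arachidonic acid by FLAG-tagged human COX-2 (Sf9-expressed). PGD2 and PGF2α (substrate surrogate) were measured by RapidFire SPE-triple quadrupole MS. Percent conversion was calculated, and inhibition was taken as reduced conversion.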

T1 sequence (O60760 whole entry): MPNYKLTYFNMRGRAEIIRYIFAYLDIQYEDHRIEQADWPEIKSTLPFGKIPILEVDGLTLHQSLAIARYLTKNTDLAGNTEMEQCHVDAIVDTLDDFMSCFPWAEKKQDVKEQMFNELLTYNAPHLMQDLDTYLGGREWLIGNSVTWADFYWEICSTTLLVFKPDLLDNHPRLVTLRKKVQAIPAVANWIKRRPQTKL

Which IC50 does the source give for `CC1(C)C[C@H](NC(=O)c2cnc(-c3cc(F)cc(Cl)c3)s2)C(=O)N1` (single isomer, unassigned) [Example 16] here?
Its IC50 is 0.0102 to 0.1 µM.
